# Source: patent US10648979B2, “Molecular probes for detecting gram-negative bacteria in vitro and in vivo” (priority 2014, dated 2020)
# “Also recorded” adds a separate entry of the source. Bridge positions count the residues as written; N and C are the ends. Square brackets hold non-standard residues; d marks the D form. Peptide text beside a SMILES is read from it. * marks the point of attachment. ξ: configuration not given here. NBD = O=[N+]([O-])c1ccc(*)c2nonc12; dDab = NCC[C@@H](N)C(=O)O; Dab = NCC[C@H](N)C(=O)O; AEEA = NCCOCCOCC(=O)O; ξDab = NCCC(N)C(=O)O
# Key:
# [1] = test system: panel of bacteria (Gram-negative and Gram-positive); experiment: Flow cytometry of bacterial labelling; type: cell-based
# Description: FIG. 7: NBD-UBIdend labels bacteria selectively over mammalian cells in vitro: A) Example images of a clinically relevant bacterial panel with NBD-UBIdend (5 μM; green) counterstained with the fluorescent generic cellular DNA dye Syto-82 (red) imaged by laser scanning confocal microscopy. B) Quantification of bacterial panel labelling NBD-UBIdend 5 μM (optimal concentration) where every bacteria in the panel is brighter when compared with MSSA and NBD-UBINle 10 μM (optimal concentration) C) Flow cytometry data with unstained bacteria (red), NBD-UBINle 15 μM (blue) and NBD-UBIdend 5 μM labelled bacteria (orange). […] Representative images shown, n≥3 for all experiments.
# FIG. 8: NBD-PMX selectively labels Gram-negative bacteria in vitro. Example images of the bacterial panel with NBD-PMX imaged by laser scanning confocal microscopy. A) Bacterial panel with NBD-PMX 1 μM (green) and counterstain with syto-82 (red). […] C) Flow cytometric evaluation of bacterial labelling with NBD-PMX showing unstained bacteria (red) and NBD-PMX (blue) labelled bacteria. […] Representative images shown, n≥3 for all experiments.
# Bacteria were prepared and counterstained with Syto 82 nucleic acid stain (Invitrogen, Calif., USA) in a shaking heat block at 37° C. and 350 rpm for 20 minutes. […] This was diluted to 500 uL and analysed using BD FACS Calibur using FL-1 and FL-2 channels, with 10,000 events. […]
# A549 cells = experiment: Labelling of A549 cells (confocal); type: cell-based, human
# Description: (§1) All compounds have undergone biological assessment.
# A549 cells were grown in Dulbecco's modified Eagle's medium (DMEM) supplemented with 10% fetal bovine serum (FBS), 2 mM L-glutamine, 100 units/mL penicillin G and 100 μg/mL streptomycin to 80% confluence. Cells were dispersed with Trypsin-EDTA and seeded onto glass coverslips or 8 well confocal imaging chambers and grown to confluence in the presence of DMEM.
# Bacteria were prepared and counterstained with Syto 82 nucleic acid stain (Invitrogen, Calif., USA) in a shaking heat block at 37° C. and 350 rpm for 20 minutes. They were co-incubated with the probe at required concentration in a sealed POC mini chamber, or 8 well confocal chamber. When required the glass coverslip for the POC chamber was coated in fibronectin (for neutrophil experiments) or poly-d-lysine (for bacteria and cell lines) and incubated with cells with one hour at 37° C. to allow adherence prior to bacterial innoculation. Analysis was with ImageJ. Briefly, the Syto channel was automatically thresholded (Huang) and an ROI generated from this. The mean fluorescence intensity on the probe channel within this ROI was quantified. Data presented represents the mean of three separate fields of view.
# [2] = test system: bacteria instilled into ovine lung segments; experiment: Ex vivo ovine lung model of bacterial infection, in situ labelling imaged by FCFM
# Description: FIG. 9: Ex vivo model of bacterial infection. A) Ovine lungs were harvested, ventilated and placed in a neonatal incubator with ambient temperature of 37° C. Pulmonary segments were instilled with PBS (control) or bacteria via bronchoscopy. Probes were then instilled and segments imaged with fibered confocal fluorescence microscopy (FCFM) using 488 nm Laser Scanning Unit (LSU). […] Bacteria (MSSA) instilled into segments of ovine lung and lavaged at 1, 3 and 5 hours (n=3), plated for CFU/ml and counted following 16 hour incubation.
# NBD-UBIdend and NBD-PMX were assessed for in situ specificity and sensitivity in an ex vivo ovine model of bacterial infection (FIG. 9). […] We observed identical patterns with Calcein-labelled bacteria and Green Fluorescent Protein-expressing S. aureus which were instilled into the lung and imaged with FCFM (FIG. 10A). This pattern is reproduced identically by instilling bacteria “pre-labelled” with NBD-UBIdend and NBD-PMX into lung segments.
# Following this thorough characterisation of the model and positive controls, we instilled PBS or VAP-relevant bacteria into distinct segments within the ex vivo lung model, followed by the microdosed delivery of the probes.
# as §1
# Bacteria were grown to midlog phase in 400 ml TSB, pelleted by centrifugation and resuspended in 2 ml PBS. This was mixed with 18 ml molten tryptic-soy agar (50° C.) and injected rapidly into vortexing mineral oil +0.01% Span 80, pre-warmed to 50° C. This was then rapidly cooled to 4° C. whilst continuing to vortex to allow the beads to set. Bacterial agar beads were pelleted by centrifugation (20 minutes, 3000 g) and washed in 0.5% sodium deoxycholate (SDC) in PBS (20 minutes, 3000 g), followed by 0.25% SDC (20 minutes, 3000 g) in PBS, washed in PBS (10 minutes, 3000 g) and 3×PBS (5 minutes, 200 g). Beads were resuspended at 50% v/v in PBS for instillation.
# From a cohort of surplus stock ewes which were destined for cull, one ewe was identified and terminally euthanized with an overdose of anaesthetic. Death was confirmed and the trachea was identified and clamped in situ. The thoracic cavity was then accessed and the lungs were freed from surrounding tissues and organs and the heart/lung was removed en block. The right pulmonary artery was identified, cannulated and perfused with 1000 ml 0.9% NaCl. Once filling of the left ventricle was confirmed an incision was made to allow free drainage and perfusion continued until the drainage from the left atrium was clear. The lungs were then transferred to the Queen's Medical Research Institute and the trachea was intubated with an 8.0 endotracheal tube immediately following clamp release. […]
# PA3284 = experiment: Bacterial labelling in the presence or absence of ovine lavage (confocal); type: cell-based, Pseudomonas aeruginosa; conditions: 1 μM
# [3] = water
# [4] = room temperature
smiles,measurement,setting,value
CC(C)C[C@@H]1NC(=O)[C@@H](Cc2ccccc2)NC(=O)[C@@H](CCN)NC(=O)C(NC(=O)[C@H](CCN)NC(=O)[C@@H](NC(=O)COCCOCCNc2ccc([N+](=O)[O-])c3nonc23)[C@@H](C)O)CCNC(=O)[C@@H]([C@H](C)O)NC(=O)[C@H](CCN)NC(=O)[C@H](CCN)NC1=O (stereo partly drawn) [NBD-PMX] ({NBD-AEEA}-T[Dab][ξDab][dDab][dF]L[Dab][Dab][dT]; lactam 3-C),labelling of Gram-positive bacteria by flow cytometry,[1],No significant labelling of Gram-positive bacteria
same,labelling of A549 cells,A549 cells,retains selectivity of labeling over mammalian cells; also recorded: no labelling of human neutrophils or A549 cells
same,detection of bacteria-coated agarose beads in situ,[2]; FCFM,when beads are coated with bacteria a signal is seen
same,in situ labelling of bacteria in segments instilled with bacteria,[2]; FCFM,demonstrated labelling
same,signal in segments with PBS or gram-positive bacteria,"[2]; MSSA, MRSA, S. pneumoniae",no signal in segments with PBS or gram-positive bacteria
same,signal in segments instilled with gram-negative bacteria,"[2]; P. aeruginosa (PA01, J3284), K. pneumoniae, E. coli",the same signal as in the ‘positive controls’
same,fluorescence in ovine lavage versus absence of lavage,PA3284,no significant reduction of fluorescence intensity
same,Solubility,[3],Fully soluble in water
same,Stability,[4],> 1 week
